pKi: −log10 of the molar value.
What was measured:
[1] = target: T1, Enoyl-[acyl-carrier-protein] reductase [NADPH] FabI (Staphylococcus aureus (strain NCTC 8325 / PS 47), UniProt Q2FZQ3); assay: Inhibition Kinetics Assay; conditions: pH 7.5
T1 sequence (Q2FZQ3 whole entry): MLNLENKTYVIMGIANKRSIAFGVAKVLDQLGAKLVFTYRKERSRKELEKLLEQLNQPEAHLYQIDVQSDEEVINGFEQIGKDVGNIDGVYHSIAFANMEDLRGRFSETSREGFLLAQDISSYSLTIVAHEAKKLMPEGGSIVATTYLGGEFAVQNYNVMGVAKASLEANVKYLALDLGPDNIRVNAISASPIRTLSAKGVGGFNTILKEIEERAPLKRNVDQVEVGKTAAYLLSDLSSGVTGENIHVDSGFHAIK
Experimental: (§1) Kinetics were performed on a Cary 100 spectrophotometer (Varian) at 20 °C.

[2] = target: T2, Enoyl-[acyl-carrier-protein] reductase [NADH] FabI (Escherichia coli (strain K12), UniProt P0AEK4); assay: Inhibition Kinetics Assay; conditions: pH 7.5
T2 sequence (P0AEK4 whole entry): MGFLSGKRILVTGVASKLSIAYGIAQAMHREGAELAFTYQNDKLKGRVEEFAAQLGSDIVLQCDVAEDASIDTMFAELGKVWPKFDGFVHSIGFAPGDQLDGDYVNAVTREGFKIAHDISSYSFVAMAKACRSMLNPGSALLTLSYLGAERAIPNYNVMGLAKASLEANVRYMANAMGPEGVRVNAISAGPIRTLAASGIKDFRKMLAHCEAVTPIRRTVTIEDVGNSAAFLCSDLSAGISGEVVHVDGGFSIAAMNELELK
Experimental: as §1

Row | SMILES | pKi [1] | pKi [2]
1 | CCCCCCc1ccc(Oc2ccccc2)c(=O)[nH]1 [PT191] | 6.71 | 
2 | Cc1c(N)cccc1Cn1ccc(OCCc2cccs2)cc1=O [CG400549] | 8.89 | 
3 | CCCCCCc1ccn(Cc2cccc(N)c2C)c(=O)c1 [PT173] | 8.70 | 6.69
4 | CCCCCCc1ccn(Cc2ccccc2)c(=O)c1 [PT179] | 7.72 | 
5 | CCCCCCc1ccn(Cc2ccccc2C)c(=O)c1 [PT171] | 7.92 | 7.02
6 | CCCCCCc1cc(=O)c(Cc2ccccc2C#N)cn1C [PT159] | 7.96 | 
7 | CCCCCCc1cc(=O)c(Oc2ccccc2C)cn1C [PT166] | 8.57 | 8.15
8 | Cc1ccn(Cc2ccccc2Cl)c(=O)c1 [PT170] | 6.64 | 
9 | CCCCCc1ccn(Cc2ccccc2C#N)c(=O)c1 [PT420] | 7.53 | 
10 | CCCCCCc1ccn(Cc2ccccc2Cl)c(=O)c1 [PT172] | 7.96 | 

Source: BindingDB's records for doi:10.1074/jbc.M113.532804 (University of Wuerzburg, 2014)
